Source: article PMC6199744, “Development of Chemical Proteomics for the Folateome and Analysis of the Kinetoplastid Folateome” (ACS Infectious Diseases, 2018)
Where two headings read alike, the source gives them in different places.

What was measured:
Format in all cases: binding
[1] = target: T1, HeLa cell extract proteins (Homo sapiens, UniProt Q969U7)
T1 construct: endogenous in cells; host or cells: HeLa cell extract
T1 sequence (Q969U7 1-264): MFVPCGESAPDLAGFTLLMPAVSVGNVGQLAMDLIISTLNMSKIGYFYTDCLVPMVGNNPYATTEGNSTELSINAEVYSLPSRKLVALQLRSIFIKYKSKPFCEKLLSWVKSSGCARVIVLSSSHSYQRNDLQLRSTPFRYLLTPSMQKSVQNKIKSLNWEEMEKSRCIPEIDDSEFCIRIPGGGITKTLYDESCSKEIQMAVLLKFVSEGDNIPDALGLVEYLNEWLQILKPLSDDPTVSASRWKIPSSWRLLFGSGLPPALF

[2] = target: T2, HeLa cell extract proteins (Homo sapiens, UniProt Q9NVI7)
T2 construct: endogenous in cells; host or cells: HeLa cell extract
T2 sequence (Q9NVI7 1-586): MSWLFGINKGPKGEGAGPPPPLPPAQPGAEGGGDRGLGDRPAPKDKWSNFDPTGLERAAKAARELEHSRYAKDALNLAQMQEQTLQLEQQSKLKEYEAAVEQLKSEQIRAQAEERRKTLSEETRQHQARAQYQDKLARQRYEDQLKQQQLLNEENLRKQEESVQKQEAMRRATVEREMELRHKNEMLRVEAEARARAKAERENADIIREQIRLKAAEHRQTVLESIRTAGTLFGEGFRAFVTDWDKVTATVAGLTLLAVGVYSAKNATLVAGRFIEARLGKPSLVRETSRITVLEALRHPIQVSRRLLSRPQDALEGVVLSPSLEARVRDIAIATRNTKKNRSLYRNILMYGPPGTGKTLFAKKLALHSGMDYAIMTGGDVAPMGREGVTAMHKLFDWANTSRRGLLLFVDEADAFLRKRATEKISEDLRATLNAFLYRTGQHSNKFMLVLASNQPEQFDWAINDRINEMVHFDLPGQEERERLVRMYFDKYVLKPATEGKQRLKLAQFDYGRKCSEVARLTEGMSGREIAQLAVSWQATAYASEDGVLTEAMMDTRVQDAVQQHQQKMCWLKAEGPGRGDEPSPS

[3] = target: T3, HeLa cell extract proteins (Homo sapiens, UniProt P54136)
T3 construct: endogenous in cells; host or cells: HeLa cell extract
T3 sequence (P54136 1-660): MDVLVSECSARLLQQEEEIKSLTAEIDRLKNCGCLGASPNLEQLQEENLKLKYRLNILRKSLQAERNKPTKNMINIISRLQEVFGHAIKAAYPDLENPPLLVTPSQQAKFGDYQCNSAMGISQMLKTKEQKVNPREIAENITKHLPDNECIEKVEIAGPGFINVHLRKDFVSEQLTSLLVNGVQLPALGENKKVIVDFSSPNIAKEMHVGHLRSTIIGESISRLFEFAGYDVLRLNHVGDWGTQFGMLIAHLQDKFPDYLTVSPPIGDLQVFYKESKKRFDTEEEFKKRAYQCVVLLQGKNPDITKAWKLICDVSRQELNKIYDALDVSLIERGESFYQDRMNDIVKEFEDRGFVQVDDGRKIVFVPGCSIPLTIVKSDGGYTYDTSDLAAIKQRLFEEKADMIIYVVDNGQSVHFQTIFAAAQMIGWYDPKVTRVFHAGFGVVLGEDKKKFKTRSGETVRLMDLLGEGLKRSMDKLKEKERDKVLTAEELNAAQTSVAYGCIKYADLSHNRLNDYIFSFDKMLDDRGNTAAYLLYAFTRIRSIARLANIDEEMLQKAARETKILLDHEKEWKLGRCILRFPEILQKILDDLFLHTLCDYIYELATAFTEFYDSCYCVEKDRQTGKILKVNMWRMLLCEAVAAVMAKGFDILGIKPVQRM

[4] = target: T4, HeLa cell extract proteins (Homo sapiens, UniProt Q14974)
T4 construct: endogenous in cells; host or cells: HeLa cell extract

[5] = target: T5, HeLa cell extract proteins (Homo sapiens, UniProt A3KMH1)
T5 construct: endogenous in cells; host or cells: HeLa cell extract

[6] = target: T6, HeLa cell extract proteins (Homo sapiens, UniProt Q13347)
T6 construct: endogenous in cells; host or cells: HeLa cell extract

[7] = target: T7, HeLa cell extract proteins (Homo sapiens, UniProt P50502)
T7 construct: endogenous in cells; host or cells: HeLa cell extract
T7 sequence (P50502 1-369): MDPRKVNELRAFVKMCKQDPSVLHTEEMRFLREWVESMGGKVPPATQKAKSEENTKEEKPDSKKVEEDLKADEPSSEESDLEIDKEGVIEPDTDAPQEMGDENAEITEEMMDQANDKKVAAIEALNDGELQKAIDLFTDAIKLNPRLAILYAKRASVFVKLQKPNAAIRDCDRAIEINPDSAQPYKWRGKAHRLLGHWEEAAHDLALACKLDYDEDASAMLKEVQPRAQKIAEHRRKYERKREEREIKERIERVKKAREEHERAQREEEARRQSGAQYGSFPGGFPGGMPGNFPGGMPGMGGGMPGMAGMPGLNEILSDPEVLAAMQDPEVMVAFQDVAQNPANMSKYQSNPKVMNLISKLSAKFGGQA

[8] = target: T8, HeLa cell extract proteins (Homo sapiens, UniProt O15027)
T8 construct: endogenous in cells; host or cells: HeLa cell extract

[9] = target: T9, HeLa cell extract proteins (Homo sapiens, UniProt P18669)
T9 construct: endogenous in cells; host or cells: HeLa cell extract

[10] = HeLa, protein ST13 (HSC70-INTERACTING PROTEIN.)
[11] = HeLa, protein PGAM1 (SIMILAR TO PHOSPHOGLYCERATE MUTASE 1 ISOFORM 1.)
[12] = HeLa, protein SEC16A (HY[…] LOC9919)

T6 sequence (Q13347 whole entry): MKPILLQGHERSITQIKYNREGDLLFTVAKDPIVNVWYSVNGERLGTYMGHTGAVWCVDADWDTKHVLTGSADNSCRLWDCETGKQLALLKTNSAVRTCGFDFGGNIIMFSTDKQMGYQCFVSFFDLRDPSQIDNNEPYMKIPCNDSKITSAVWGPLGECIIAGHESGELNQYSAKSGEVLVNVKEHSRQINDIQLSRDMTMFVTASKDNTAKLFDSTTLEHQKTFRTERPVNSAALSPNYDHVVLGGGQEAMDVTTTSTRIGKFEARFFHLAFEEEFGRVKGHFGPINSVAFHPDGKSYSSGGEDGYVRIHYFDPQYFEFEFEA
T4 sequence (Q14974 whole entry): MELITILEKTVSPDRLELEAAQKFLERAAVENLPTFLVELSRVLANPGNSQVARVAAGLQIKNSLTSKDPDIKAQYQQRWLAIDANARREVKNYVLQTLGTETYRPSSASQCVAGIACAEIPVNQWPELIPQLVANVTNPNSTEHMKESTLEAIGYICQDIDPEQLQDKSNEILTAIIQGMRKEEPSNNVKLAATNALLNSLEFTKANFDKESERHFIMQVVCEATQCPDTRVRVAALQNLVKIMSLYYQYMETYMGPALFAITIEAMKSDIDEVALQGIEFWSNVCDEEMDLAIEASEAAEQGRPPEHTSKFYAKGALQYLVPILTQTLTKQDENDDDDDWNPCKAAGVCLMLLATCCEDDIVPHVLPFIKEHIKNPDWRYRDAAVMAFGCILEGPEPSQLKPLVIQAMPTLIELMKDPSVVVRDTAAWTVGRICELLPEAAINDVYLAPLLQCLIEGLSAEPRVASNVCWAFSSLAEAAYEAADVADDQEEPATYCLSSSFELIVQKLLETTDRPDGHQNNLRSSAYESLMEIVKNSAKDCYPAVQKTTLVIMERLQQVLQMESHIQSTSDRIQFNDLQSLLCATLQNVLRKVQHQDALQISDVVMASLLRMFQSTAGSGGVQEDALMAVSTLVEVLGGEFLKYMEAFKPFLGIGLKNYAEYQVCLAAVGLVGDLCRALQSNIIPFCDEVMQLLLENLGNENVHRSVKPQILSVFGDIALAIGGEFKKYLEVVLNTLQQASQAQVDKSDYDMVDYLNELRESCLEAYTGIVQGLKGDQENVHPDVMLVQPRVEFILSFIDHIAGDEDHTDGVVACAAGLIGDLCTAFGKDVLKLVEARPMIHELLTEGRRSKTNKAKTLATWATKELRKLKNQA
T5 sequence (A3KMH1 29-1905): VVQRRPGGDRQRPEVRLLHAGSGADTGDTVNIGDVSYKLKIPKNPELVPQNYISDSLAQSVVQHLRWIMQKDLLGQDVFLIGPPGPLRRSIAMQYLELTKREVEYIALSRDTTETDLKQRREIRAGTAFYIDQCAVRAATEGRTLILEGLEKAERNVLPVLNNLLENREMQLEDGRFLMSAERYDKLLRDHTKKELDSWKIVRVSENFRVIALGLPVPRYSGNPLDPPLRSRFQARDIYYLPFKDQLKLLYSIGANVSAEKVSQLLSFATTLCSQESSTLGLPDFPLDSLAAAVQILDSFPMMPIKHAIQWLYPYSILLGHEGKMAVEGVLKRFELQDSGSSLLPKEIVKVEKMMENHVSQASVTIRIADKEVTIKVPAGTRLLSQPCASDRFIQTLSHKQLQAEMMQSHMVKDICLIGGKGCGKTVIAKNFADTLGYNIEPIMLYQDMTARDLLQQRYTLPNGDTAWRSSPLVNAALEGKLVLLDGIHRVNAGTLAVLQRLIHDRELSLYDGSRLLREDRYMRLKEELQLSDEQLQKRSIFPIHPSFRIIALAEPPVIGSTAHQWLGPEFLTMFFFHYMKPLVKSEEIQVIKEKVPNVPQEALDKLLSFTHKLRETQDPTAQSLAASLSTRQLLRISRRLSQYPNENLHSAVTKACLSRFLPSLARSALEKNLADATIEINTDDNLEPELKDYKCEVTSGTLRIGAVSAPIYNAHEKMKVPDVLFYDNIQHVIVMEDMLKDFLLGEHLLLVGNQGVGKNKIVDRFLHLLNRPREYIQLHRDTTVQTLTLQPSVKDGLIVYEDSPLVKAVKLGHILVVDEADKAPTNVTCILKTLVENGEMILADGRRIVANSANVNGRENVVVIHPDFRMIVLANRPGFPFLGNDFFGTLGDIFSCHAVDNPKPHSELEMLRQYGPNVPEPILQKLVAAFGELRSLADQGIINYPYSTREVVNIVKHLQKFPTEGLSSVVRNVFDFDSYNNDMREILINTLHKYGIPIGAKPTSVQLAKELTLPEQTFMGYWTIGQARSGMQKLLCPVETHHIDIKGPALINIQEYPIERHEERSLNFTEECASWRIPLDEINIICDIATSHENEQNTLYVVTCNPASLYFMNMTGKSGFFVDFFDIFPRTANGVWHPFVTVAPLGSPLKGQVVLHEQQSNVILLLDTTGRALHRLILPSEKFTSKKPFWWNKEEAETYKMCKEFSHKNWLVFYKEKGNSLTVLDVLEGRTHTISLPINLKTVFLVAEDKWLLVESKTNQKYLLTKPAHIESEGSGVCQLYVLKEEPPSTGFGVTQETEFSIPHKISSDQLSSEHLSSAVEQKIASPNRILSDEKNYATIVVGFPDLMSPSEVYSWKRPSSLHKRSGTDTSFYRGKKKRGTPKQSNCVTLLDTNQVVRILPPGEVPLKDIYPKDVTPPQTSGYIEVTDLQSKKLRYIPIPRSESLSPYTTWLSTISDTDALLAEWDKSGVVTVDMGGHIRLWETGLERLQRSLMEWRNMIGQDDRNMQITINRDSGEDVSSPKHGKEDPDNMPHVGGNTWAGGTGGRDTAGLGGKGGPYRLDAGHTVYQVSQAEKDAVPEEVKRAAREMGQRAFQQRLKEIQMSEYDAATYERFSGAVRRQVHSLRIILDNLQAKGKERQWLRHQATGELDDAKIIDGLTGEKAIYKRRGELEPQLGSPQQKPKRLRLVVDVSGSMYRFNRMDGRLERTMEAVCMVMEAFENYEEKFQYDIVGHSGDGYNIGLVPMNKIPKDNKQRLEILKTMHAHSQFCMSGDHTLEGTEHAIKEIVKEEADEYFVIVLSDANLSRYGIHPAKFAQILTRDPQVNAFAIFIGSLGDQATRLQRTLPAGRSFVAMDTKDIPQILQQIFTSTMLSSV
T9 sequence (P18669 whole entry): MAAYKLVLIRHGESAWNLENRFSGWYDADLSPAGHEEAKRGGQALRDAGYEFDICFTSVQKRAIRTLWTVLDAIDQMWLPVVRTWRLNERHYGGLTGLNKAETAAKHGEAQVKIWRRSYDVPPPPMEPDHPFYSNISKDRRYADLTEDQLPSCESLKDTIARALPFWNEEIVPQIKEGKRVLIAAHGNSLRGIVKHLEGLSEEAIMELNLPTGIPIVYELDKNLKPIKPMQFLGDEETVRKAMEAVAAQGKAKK

| SMILES | fold changes relative to vehicle control ([1]; protein PSMG2, HeLa) | fold changes relative to vehicle control ([2]; HeLa, protein ATAD3A) | fold changes relative to vehicle control ([3]; protein RARS, HeLa) | fold changes relative to vehicle control ([4]; protein KPNB1, HeLa) | fold changes relative to vehicle control ([5]; protein KIAA0564, HeLa) | fold changes relative to vehicle control ([6]; protein EIF3I, HeLa) | fold changes relative to vehicle control [7, 10] | fold changes relative to vehicle control ([8]; HeLa, protein SEC16A) | fold changes relative to vehicle control ([1]; HeLa, captured protein PSMG2) | fold changes relative to vehicle control ([3]; HeLa, captured protein RARS) | fold changes relative to vehicle control ([4]; HeLa, protein KPNB1) | fold changes relative to vehicle control ([5]; HeLa, protein KIAA0564) | fold changes relative to vehicle control ([6]; HeLa, captured protein EIF3I) | fold changes relative to vehicle control ([7]; protein ST13, HeLa) | fold changes relative to vehicle control ([9]; HeLa, protein PGAM1) | further results |
| --- | --- | --- | --- | --- | --- | --- | --- | --- | --- | --- | --- | --- | --- | --- | --- | --- |
| CCCCCCOc1cccc(Cc2cnc(N)nc2N)c1 [compound 2] | 1.03 | 1.15 | 1.19 | 1.6 | 1.11 | 0.91 | 2.63 fold | 0.97 |  |  |  |  |  |  |  | fold changes relative to vehicle control [9, 11]: 2.64 fold |
| NCCOCCOCC(=O)Nc1nc2ncc(CNc3ccc(C(=O)NC(CCC(=O)O)C(=O)O)cc3)nc2c(=O)[nH]1 (stereo not drawn) [compound 6] |  | 1.17 |  |  |  |  |  |  | 1 | 0.99 | 1.13 | 1.1 | 0.98 | 1.3 | 1.41 | fold changes relative to vehicle control [8, 12]: 1.13 |
| CCCCCCOc1ccc(Cc2cnc(N)nc2N)cc1 [compound 1] | 1 | 1.13 | 0.9 | 1.09 | 0.99 | 0.96 | 1.44 fold | 1 |  |  |  |  |  |  |  | fold changes relative to vehicle control [9, 11]: 1.5 fold |
| Nc1nc2c(c(=O)[nH]1)N(C=O)C(CNc1ccc(C(=O)N[C@@H](CCC(=O)O)C(=O)O)cc1)CN2 (stereo partly drawn) [LEU, leucovorin] |  | 0.98 |  |  |  |  |  |  | 1.05 | 0.97 | 0.99 | 1 | 1.06 | 0.98 | 1.05 | fold changes relative to vehicle control [8, 12]: 1.25 |
| NCCCNc1ccc(C(=O)NC(CCC(=O)O)C(=O)O)cc1 (stereo not drawn) [compound 7] |  | 1.13 |  |  |  |  |  |  | 0.98 | 0.96 | 0.89 | 1.09 | 0.97 | 1.04 | 0.99 | fold changes relative to vehicle control ([8]; HeLa, protein SEC16A (HYPOTHETICAL PROTEIN LOC9919)): 1.3 |
| Nc1nc2[nH]cc(CCc3ccc(C(=O)N[C@@H](CCC(=O)O)C(=O)O)cc3)c2c(=O)[nH]1 [PTX, pemetrexed] |  |  |  |  |  |  |  |  |  |  |  |  |  |  |  | fold changes relative to vehicle control [1]: 0.97; fold changes relative to vehicle control [2]: 1.12; fold changes relative to vehicle control [3]: 0.93; fold changes relative to vehicle control [4]: 1.06; fold changes relative to vehicle control [5]: 0.99; fold changes relative to vehicle control [6]: 1.06; fold changes relative to vehicle control [7]: 1.12; fold changes relative to vehicle control [8]: 1.17; fold changes relative to vehicle control [9]: 1.24 |
| Nc1nc2cccc(-c3ccccc3)c2n1Cc1ccc(Cl)c(Cl)c1 [compound 3] | 0.87 | 1.05 | 0.94 | 0.97 | 1.1 | 1.02 | 1.09 fold | 1.19 |  |  |  |  |  |  |  | fold changes relative to vehicle control ([9]; HeLa, protein PGAM1 (SIMILAR TO PHOSPH[…] 1 ISOFORM 1.)): 0.9 fold |
